Experimental data reported in patent US5756473A, “6-O-methyl erythromycin D and process for making” (Abbott Laboratories, priority 1995, dated 1998).
In brackets after ≈: the same amount, converted by molar mass. Like-named read-outs stand apart in the source and are kept apart here.

Columns and labels:
Providencia stuartii = assay: In vitro antibacterial activity, agar dilution MIC (Providencia stuartii); type: cell-based; conditions: strain CMX 640, BHI agar, 35-37 °C, 20 to 24 hours
Streptococcus pyogenes = assay: In vitro antibacterial activity, agar dilution MIC (Streptococcus pyogenes); type: cell-based; conditions: 35-37 °C, 20 to 24 hours
Experimental: (§1) The 6-O-methyl erythromycin D compound of the present invention was assayed in vitro for antibacterial activity as follows: Twelve petri dishes containing successive aqueous dilutions of the test compound mixed with 10 mL of sterilized Brain Heart Infusion (BHI) agar (Difco 0418-01-5) were prepared. Each plate was inoculated with 1:100 (or 1:10 for slow-growing strains, such as Micrococcus and Streptococcus) dilutions of up to 32 different microorganisms, using a Steers replicator block. The inoculated plates were incubated at 35°-37° C. for 20 to 24 hours. In addition, a control plate, using BHI agar containing no test compound, was prepared and incubated at the beginning and end of each test.
(§2) An additional plate containing a compound having known susceptibility patterns for the organisms being tested and belonging to the same antibiotic class as the test compound was also prepared and incubated as a further control, as well as to provide test-to-test comparability. Erythromycin A was used for this purpose.
(§3) After incubation, each disk was read. The minimum inhibitory concentration (MIC) was defined as the lowest concentration of drug yielding no growth, a slight haze, or sparsely isolated colonies on the inoculum spot as compared to the growth control.

Enterococcus faecium = assay: In vitro antibacterial activity, agar dilution MIC (Enterococcus faecium); type: cell-based; conditions: ATCC8043, strain ATCC 8043, BHI agar, 35-37 °C, 20 to 24 hours
Pseudomonas aeruginosa = assay: In vitro antibacterial activity, agar dilution MIC (Pseudomonas aeruginosa); type: cell-based; conditions: for MIC: Pseudomonas aeruginosa
Experimental: as §1, §2, §3

Mycobaceterium smegmatis = assay: In vitro antibacterial activity, agar dilution MIC (Mycobaceterium smegmatis); type: cell-based
Experimental: as §1, §2, §3

[1] = test system: Acinetobacter calcoaceticus; assay: microbe, parasite or virus in culture
Experimental: as §1, §2, §3

Klebsiella pneumoniae = assay: microbe, parasite or virus in culture; conditions: ATCC8045
Experimental: as §1, §2, §3

[2] = test system: Staphylococcus epidermidis; assay: In vitro antibacterial activity, agar dilution MIC (Staphylococcus epidermidis); type: cell-based
Experimental: as §1, §2, §3

Micrococcus luteus = assay: In vitro antibacterial activity, agar dilution MIC (Micrococcus luteus); type: cell-based
Experimental: as §1, §2, §3

Streptococcus bovis = assay: In vitro antibacterial activity, agar dilution MIC (Streptococcus bovis); type: cell-based; conditions: Streptococcus equinus
Experimental: as §1, §2, §3

Escherichia coli = assay: In vitro antibacterial activity, agar dilution MIC (Escherichia coli); type: cell-based; conditions: 35-37 °C, 20 to 24 hours
Staphylococcus aureus = assay: In vitro antibacterial activity, agar dilution MIC (Staphylococcus aureus); type: cell-based; conditions: BHI agar, 35-37 °C, 20 to 24 hours
Experimental: as §1, §2, §3

Enterobacter aerogenes = assay: In vitro antibacterial activity, agar dilution MIC (Enterobacter aerogenes); type: cell-based; conditions: Klebsiella aerogenes, ATCC13048; strain ATCC 13048; BHI agar, 35-37 °C, 20 to 24 hours
Streptococcus agalactiae = assay: In vitro antibacterial activity, agar dilution MIC (Streptococcus agalactiae); type: cell-based
Experimental: as §1, §2, §3

Nocardia asteroides = assay: In vitro antibacterial activity, agar dilution MIC (Nocardia asteroides); type: cell-based; conditions: ATCC9970, strain ATCC 9970, BHI agar, 35-37 °C, 20 to 24 hours
Experimental: as §1, §2, §3

Candida albicans = assay: microbe, parasite or virus in culture
Experimental: as §1, §2, §3

microorganisms = assay: In vitro assay of antibacterial activity (overall conclusion); type: cell-based; conditions: overall conclusion from Table 1
Experimental: Erythromycin A was used for this purpose.
After incubation, each disk was read.

[3] = strain 2862, BHI agar, 35-37 °C, 20 to 24 hours
[4] = strain 5263, BHI agar, 35-37 °C, 20 to 24 hours
[5] = strain A5007, BHI agar, 35-37 °C, 20 to 24 hours
[6] = strain K799/WT, BHI agar, 35-37 °C, 20 to 24 hours
[7] = strain DC-2, BHI agar, read-out: MIC
[8] = strain Juhl, BHI agar, read-out: MIC
[9] = strain KNK 437, BHI agar, read-out: MIC
[10] = strain SS, BHI agar, read-out: MIC
[11] = Staphylococcus aureus, strain 1775 Cipro R
[12] = Staphylococcus aureus, strain A5177
[13] = Staphylococcus aureus, strain A5278

CC[C@H]1OC(=O)[C@H](C)[C@@H](O[C@H]2C[C@@](C)(OC)[C@@H](O)[C@H](C)O2)[C@H](C)[C@@H](O[C@@H]2O[C@H](C)C[C@H](N(C)C)[C@H]2O)[C@](C)(O)C[C@@H](C)C(=O)[C@H](C)[C@@H](O)[C@]1(C)O [Erythromycin A, reference compound]
MIC (Providencia stuartii): > 100 µg/mL
MIC (Streptococcus pyogenes; strain 930 const, BHI agar): > 100 µg/mL
MIC (Streptococcus pyogenes; strain 2548 induc, BHI agar): 6.2 µg/mL (≈ 8.45 µM)
MIC (Streptococcus pyogenes; strain EES61, BHI agar): 0.05 µg/mL (≈ 0.0681 µM)
MIC (Enterococcus faecium): 0.05 µg/mL (≈ 0.0681 µM)
MIC (Pseudomonas aeruginosa): > 100 µg/mL
MIC (Pseudomonas aeruginosa; [3]): > 100 µg/mL
MIC (Pseudomonas aeruginosa; [4]): > 100 µg/mL
MIC (Pseudomonas aeruginosa; [5]): > 100 µg/mL
MIC (Pseudomonas aeruginosa; strain K799/61, BHI agar, 35-37 °C, 20 to 24 hours): > 100 µg/mL
MIC (Pseudomonas aeruginosa; [6]): > 100 µg/mL
MIC (Mycobaceterium smegmatis): 12.5 µg/mL (≈ 17 µM)
MIC [1]: 12.5 µg/mL (≈ 17 µM)
MIC (Klebsiella pneumoniae): 50 µg/mL (≈ 68.1 µM)
MIC [2]: 0.2 µg/mL (≈ 0.273 µM)
MIC (Micrococcus luteus): 0.01 µg/mL (≈ 0.0136 µM)
MIC (Micrococcus luteus; ATCC9341): 0.05 µg/mL (≈ 0.0681 µM)
MIC (Streptococcus bovis): 0.02 µg/mL (≈ 0.0273 µM)
MIC (Escherichia coli; [7]): 50 µg/mL (≈ 68.1 µM)
MIC (Escherichia coli; strain H560, BHI agar): 2.5 µg/mL (≈ 3.41 µM)
MIC (Escherichia coli; [8]): 50 µg/mL (≈ 68.1 µM)
MIC (Escherichia coli; [9]): 50 µg/mL (≈ 68.1 µM)
MIC (Escherichia coli; [10]): 0.2 µg/mL (≈ 0.273 µM)
MIC (Staphylococcus aureus; Staphylococcus aureus, ATCC6538P, strain ATCC 6538P): 0.2 µg/mL (≈ 0.273 µM)
MIC (Staphylococcus aureus; Staphylococcus aureus, NCTC10649, strain NCTC 10649): 0.2 µg/mL (≈ 0.273 µM)
MIC (Staphylococcus aureus; [11]): > 100 µg/mL
MIC (Staphylococcus aureus; [12]): 1.56 µg/mL (≈ 2.13 µM)
MIC (Staphylococcus aureus; [13]): > 100 µg/mL
MIC (Staphylococcus aureus; Staphylococcus aureus, strain CMX 553): 0.2 µg/mL (≈ 0.273 µM)
MIC (Staphylococcus aureus; Staphylococcus aureus, strain 642a): 0.2 µg/mL (≈ 0.273 µM)
MIC (Enterobacter aerogenes): 100 µg/mL (≈ 136 µM)
MIC (Streptococcus agalactiae): 0.05 µg/mL (≈ 0.0681 µM)
MIC (Nocardia asteroides): 0.05 µg/mL (≈ 0.0681 µM)

CC[C@H]1OC(=O)[C@H](C)[C@@H](O[C@H]2C[C@@](C)(O)[C@@H](O)[C@H](C)O2)[C@H](C)[C@@H](O[C@@H]2O[C@H](C)C[C@H](N(C)C)[C@H]2O)[C@](C)(OC)C[C@@H](C)C(=O)[C@H](C)[C@@H](O)[C@H]1C [Example 3, 6-O-Methylerythromycin D]
MIC (Providencia stuartii): > 100 µg/mL
MIC (Streptococcus pyogenes; strain 930 const, BHI agar): > 100 µg/mL
MIC (Streptococcus pyogenes; strain 2548 induc, BHI agar): 3.1 µg/mL (≈ 4.32 µM)
MIC (Streptococcus pyogenes; strain EES61, BHI agar, read-out: MIC): 0.05 µg/mL (≈ 0.0696 µM)
MIC (Enterococcus faecium): 0.1 µg/mL (≈ 0.139 µM)
MIC (Pseudomonas aeruginosa): 1.56 µg/mL (≈ 2.17 µM)
antibacterial effectiveness (in words) (Pseudomonas aeruginosa; Pseudomonas aeruginosa K799/61, comparison with Erythromycin A control): significantly more effective
MIC (Pseudomonas aeruginosa; [3]): > 100 µg/mL
MIC (Pseudomonas aeruginosa; [4]): > 100 µg/mL
MIC (Pseudomonas aeruginosa; [5]): > 100 µg/mL
MIC (Pseudomonas aeruginosa; strain BMH10, BHI agar, 35-37 °C, 20 to 24 hours): > 100 µg/mL
MIC (Pseudomonas aeruginosa; [6]): > 100 µg/mL
antibacterial effectiveness (in words) (Mycobaceterium smegmatis; Mycobaceterium smegmatis ATCC 114, comparison with Erythromycin A control): significantly more effective
MIC (Mycobaceterium smegmatis; strain ATCC 114, BHI agar, 35-37 °C, 20 to 24 hours, read-out: MIC): 0.78 µg/mL (≈ 1.09 µM)
MIC [1]: > 100 µg/mL
MIC (Candida albicans): > 100 µg/mL
MIC (Klebsiella pneumoniae): > 100 µg/mL
antibacterial activity (in words) (microorganisms): effective antibacterial agent
MIC ([2]; strain 3519, BHI agar, 35-37 °C, 20 to 24 hours, read-out: MIC): 0.39 µg/mL (≈ 0.543 µM)
MIC (Micrococcus luteus): 1.56 µg/mL (≈ 2.17 µM)
MIC (Micrococcus luteus; ATCC9341, strain ATCC 9341, BHI agar, 35-37 °C, 20 to 24 hours, read-out: MIC): 0.05 µg/mL (≈ 0.0696 µM)
MIC (Streptococcus bovis; strain A5169, BHI agar, 35-37 °C, 20 to 24 hours, read-out: MIC): 0.01 µg/mL (≈ 0.0139 µM)
MIC (Escherichia coli; [7]): > 100 µg/mL
MIC (Escherichia coli; strain H560, BHI agar): > 100 µg/mL
MIC (Escherichia coli; [8]): > 100 µg/mL
MIC (Escherichia coli; [9]): > 100 µg/mL
MIC (Escherichia coli; [10]): 0.39 µg/mL (≈ 0.543 µM)
MIC (Staphylococcus aureus; Staphylococcus aureus, ATCC6538P, strain ATCC 6538P, read-out: MIC): 0.39 µg/mL (≈ 0.543 µM)
MIC (Staphylococcus aureus; Staphylococcus aureus, NCTC10649, strain NCTC 10649, read-out: MIC): 0.39 µg/mL (≈ 0.543 µM)
MIC (Staphylococcus aureus; [11]): > 100 µg/mL
MIC (Staphylococcus aureus; [12]): 3.1 µg/mL (≈ 4.32 µM)
MIC (Staphylococcus aureus; [13]): > 100 µg/mL
MIC (Staphylococcus aureus; Staphylococcus aureus, strain 642a, read-out: MIC): 0.39 µg/mL (≈ 0.543 µM)
MIC (Staphylococcus aureus; strain CMX 553): 0.39 µg/mL (≈ 0.543 µM)
MIC (Enterobacter aerogenes): > 100 µg/mL
MIC (Streptococcus agalactiae; strain 508, BHI agar, 35-37 °C, 20 to 24 hours, read-out: MIC): 0.05 µg/mL (≈ 0.0696 µM)
MIC (Nocardia asteroides): 0.05 µg/mL (≈ 0.0696 µM)
